Test results taken from patent publication US4782159A, “Process for preparing beta-methyl-gamma-oxo-4-(4-oxo-1(4H)-pyridinyl) derivative of benzene butanoic acid” (Smith Kline & French Laboratories Limited, priority 1986, dated 1988).
Entries after “also recorded” stand apart in the source; their conditions may differ.

Legend:
PDE (Peak I) [1] = assay: Inhibition of Phosphodiesterases, PDE (Peak I); format: biochemical, cat; conditions: at up to 10^-4 M
Source text: (§1) This specificity is an indication that the compound is likely to have a force/rate selectivity in its cardiac stimulant activity with a low potential for inducing arrythmias.

[2] = tested on: histamine-induced bronchoconstriction; assay: Bronchodilatation--In vivo (histamine-induced bronchoconstriction); design: species or system guinea-pig, Dunkin Hartley strain; conditions: i.v., one minute before histamine challenge
Description: Male guinea-pigs of the Dunkin Hartley strain (530 g±6 g) were anaesthetised with Sagatal (pentobarbital sodium) (90 mg/kg i.p.). Airway resistance was measured using a modification of the classical Konzett-Rossler technique (Versuchsanordnung zu Untersuchungen an der Bronchialmuskulatur. Naunyn-Schmiedebergs Arch. Exp. Path. Pharmak., 195: pp 71-74, (1940)). A dose of histamine which gave approximately 150% increase in airway resistance was selected for i.v. administration. Bolus doses of the compound of formula (2) was administered (i.v.) one minute before the histamine challenge.

[3] = tested on: left ventricular dp/dt max; assay: Cardiac Stimulant Activity--In vivo (Conscious Dogs); design: species or system dog
Description: The compound of formula (2) increased left ventricular dp/dt max in conscious dogs after intravenous administration at doses below 0.02 mg/kg. Oral administration caused positive inotropic responses at doses of 0.05 mg/kg and below.

PDE (Peak III) [4] = molecular target: T1, PDE (Peak III) (Felis catus, UniProt A0ABI7YEY2); assay: Inhibition of Phosphodiesterases, PDE (Peak III)
T1 sequence (A0ABI7YEY2 1-1144): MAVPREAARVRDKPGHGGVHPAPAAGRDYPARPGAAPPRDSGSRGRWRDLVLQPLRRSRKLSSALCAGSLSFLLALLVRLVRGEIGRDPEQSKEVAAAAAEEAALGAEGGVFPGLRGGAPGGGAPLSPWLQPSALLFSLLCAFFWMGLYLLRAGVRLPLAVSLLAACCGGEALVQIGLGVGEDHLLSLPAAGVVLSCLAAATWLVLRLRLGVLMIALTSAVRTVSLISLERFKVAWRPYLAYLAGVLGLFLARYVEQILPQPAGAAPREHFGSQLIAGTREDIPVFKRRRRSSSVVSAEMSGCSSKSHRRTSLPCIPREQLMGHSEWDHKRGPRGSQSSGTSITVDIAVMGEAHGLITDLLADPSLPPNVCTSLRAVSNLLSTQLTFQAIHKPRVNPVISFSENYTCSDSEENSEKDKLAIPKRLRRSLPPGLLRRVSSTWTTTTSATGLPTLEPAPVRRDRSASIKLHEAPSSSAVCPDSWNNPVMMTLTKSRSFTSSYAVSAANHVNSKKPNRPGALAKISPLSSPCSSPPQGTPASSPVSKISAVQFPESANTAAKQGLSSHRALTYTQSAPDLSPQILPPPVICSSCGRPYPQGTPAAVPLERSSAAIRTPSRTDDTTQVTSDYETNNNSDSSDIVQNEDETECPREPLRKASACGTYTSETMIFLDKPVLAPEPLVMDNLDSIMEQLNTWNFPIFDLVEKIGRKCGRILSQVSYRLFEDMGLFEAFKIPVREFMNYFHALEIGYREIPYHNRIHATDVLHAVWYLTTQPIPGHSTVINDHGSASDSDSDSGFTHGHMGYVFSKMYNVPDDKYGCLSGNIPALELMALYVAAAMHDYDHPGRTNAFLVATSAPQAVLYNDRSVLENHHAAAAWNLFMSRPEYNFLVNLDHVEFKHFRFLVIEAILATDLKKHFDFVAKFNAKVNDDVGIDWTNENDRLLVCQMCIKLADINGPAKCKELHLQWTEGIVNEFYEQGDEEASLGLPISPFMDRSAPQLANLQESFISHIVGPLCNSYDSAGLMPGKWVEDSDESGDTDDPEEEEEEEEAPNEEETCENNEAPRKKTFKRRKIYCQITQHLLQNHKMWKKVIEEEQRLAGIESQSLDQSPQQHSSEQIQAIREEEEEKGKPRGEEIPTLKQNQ
Description: (§2) The enzyme was assayed by incubation at 37° for 4-30 min in 50 mM Tris, 5 mM MgCl2, pH 7.5 with [3-H] cyclic nucleotide (4×10^5 disintegrations min^-1) and [14-C] nucleotide 5' monophosphate (3×10^3 disintegrations min^-1). The assay was stopped by boiling, and the [3-H] […] The reaction mixture was diluted with 0.5 ml 100 mM HEPES (N-2-Hydroxyethylpiperazine-N'-2-ethanesulfonic acid), 100 mM NaCl, pH 8.5, and applied to the column. […] The recovery of product as judged by [14-C] recovery was approximately 80%. All assays were linear with time of incubation and concentration of enzyme over the range used in these experiments.

[5] = tested on: platelet aggregation induced by the endoperoxide mimetic U44069; assay: Platelet Aggregation Inhibition--In vitro; format: cell-based; conditions: U44069 (10 μM), aspirin-treated (100 μM) human platelet rich plasma
Description: Platelet rich plasma (PRP) was prepared from whole human blood anti-coagulated with 1/10 volume acid citrate dextrose. The citrated blood was centrifuged at 700 g for 5 minutes and the PRP removed. The remaining red cells and plasma were centrifuged for a further 15 minutes at 900 g and the platelet poor plasma removed. This was then mixed with the PRP to give a final platelet count of 2-3×10^8 cells/ml.
PRP was divided into 0.5 ml aliquots which were preincubated for 2 minutes to 37° C. before being placed in the sample chamber of an HG aggregometer connected to a Teckman chart recorder.
Aspirin was added to a concentration of 100 μM.
Aggregation to the endoperoxide mimetic U44069 (9,11-epoxymethano-PGH2) was then examined in the absence and presence of a range of concentrations of the compound of formula (2).

[6] = tested on: left ventricular dp/dt max (index of left ventricular contractility); assay: Cardiac Stimulant Activity--In vivo (Anaesthetised Cats); design: species or system cat; conditions: intravenous
Source text: In anaesthetised cats pretreated with a ganglion blocker (mecamylamine or pempidine) and propranolol, the compound of formula (2) causes increases in left ventricular dp/dt max (this is an index of left ventricular contractility) when administered intravenously.

PDE (Peak II) [7] = molecular target: T2, PDE (Peak II) (Felis catus, UniProt A0ABI7ZLD2); assay: Inhibition of Phosphodiesterases, PDE (Peak II); format: biochemical, cat
T2 construct: DEAE-Sepharose CL-6B Peak II of cat heart high-speed supernatant
T2 sequence (A0ABI7ZLD2 1-921): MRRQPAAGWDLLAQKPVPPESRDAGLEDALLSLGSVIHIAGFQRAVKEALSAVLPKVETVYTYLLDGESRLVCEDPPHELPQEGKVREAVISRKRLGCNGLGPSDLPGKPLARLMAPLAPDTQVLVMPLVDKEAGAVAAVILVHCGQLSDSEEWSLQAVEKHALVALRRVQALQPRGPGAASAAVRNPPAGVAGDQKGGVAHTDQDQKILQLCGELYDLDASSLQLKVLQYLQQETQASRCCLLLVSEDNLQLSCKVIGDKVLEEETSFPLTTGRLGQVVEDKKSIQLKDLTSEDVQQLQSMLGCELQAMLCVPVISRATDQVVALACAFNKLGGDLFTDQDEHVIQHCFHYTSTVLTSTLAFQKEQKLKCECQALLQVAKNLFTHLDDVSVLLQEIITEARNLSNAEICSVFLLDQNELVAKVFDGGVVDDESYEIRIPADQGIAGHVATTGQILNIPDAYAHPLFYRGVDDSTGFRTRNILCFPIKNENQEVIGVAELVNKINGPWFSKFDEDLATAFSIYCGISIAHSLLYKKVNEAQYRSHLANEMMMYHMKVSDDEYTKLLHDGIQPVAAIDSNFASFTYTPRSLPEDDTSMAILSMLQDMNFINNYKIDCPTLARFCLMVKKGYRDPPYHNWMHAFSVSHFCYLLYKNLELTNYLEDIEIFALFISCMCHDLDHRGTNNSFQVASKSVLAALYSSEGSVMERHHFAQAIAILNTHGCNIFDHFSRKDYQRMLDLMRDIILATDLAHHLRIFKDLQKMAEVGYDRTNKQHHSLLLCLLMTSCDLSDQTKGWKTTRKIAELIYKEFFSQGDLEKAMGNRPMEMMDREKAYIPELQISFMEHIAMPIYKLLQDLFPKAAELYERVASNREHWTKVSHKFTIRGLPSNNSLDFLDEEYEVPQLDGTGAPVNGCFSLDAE
Source text: as §1

PDE (Peak II) [8] = molecular target: T2, PDE (Peak II); assay: Substrate kinetics of PDE (Peak II) from cat heart; format: biochemical
Description: as §2

PDE (Peak III) [9] = molecular target: T1, PDE (Peak III); assay: Substrate kinetics of PDE (Peak III) from cat heart; format: biochemical; design: DEAE-Sepharose Peak III from high-speed supernatant of cat heart homogenate
Description: as §2

PDE (Peak I) [10] = assay: Substrate kinetics of PDE (Peak I) from cat heart; format: biochemical; conditions: for Relative Vmax: PDE (Peak I)

CC1CC(=O)NN=C1c1ccc(-n2ccc(=O)cc2)cc1 (centres unmarked) [formula (2)]
inhibition of PDE (Peak I) (PDE (Peak I) [1]): no inhibition | ED50 ([2]; Cavia porcellus, iv, read-out: ED50 (dose which reduced the histamine bronchoconstriction by 50%)): 1.8 µmol/kg | minimal effective dose ([2]; Cavia porcellus, read-out: threshold dose): 0.01 µmol/kg | effect on histamine-induced bronchoconstriction [2]: reduced the histamine-induced bronchoconstriction | changes in blood pressure or heart rate [3]: without changes | force-rate selectivity [3]: particularly beneficial | selectivity for PDE (Peak III) / phosphodiesterase type III (PDE (Peak III) [4]; versus PDE (Peak I) and PDE (Peak II)): selective phosphodiesterase type III inhibitor; also recorded: selective PDE (Peak III) inhibitor | IC50 [5]: 0.08 ± 0.01 µM | ED50 ([6]; Felis catus, read-out: ED50 (dose to increase left ventricular dp/dt max by 50%), anaesthetised cats pretreated with ganglion blocker and propranolol): 0.04 µmol/kg | changes in blood pressure or heart rate ([6]; anaesthetised cats): Minimal changes | inhibition of PDE (Peak II) (PDE (Peak II) [7]): either no or weak inhibition

Nc1nc2c(ncn2[C@@H]2O[C@@H]3COP(=O)(O)O[C@H]3[C@H]2O)c(=O)[nH]1 [cyclic GMP]
Relative Vmax (PDE (Peak II) [8]; PDE (Peak II)): 0.2 | affinity of PDE (Peak II) for substrate (PDE (Peak II) [8]; in words): relatively low affinities | Relative Vmax (PDE (Peak III) [9]): 0.4 | Relative Vmax (PDE (Peak I) [10]; 50 μg/ml calmodulin added): 7.2 | Relative Vmax (PDE (Peak I) [10]; without calmodulin): 1.1 | affinity of PDE (Peak I) for substrate (PDE (Peak I) [10]; in words): high affinity

Nc1cc(-c2ccncc2)c[nH]c1=O [Amrinone, reference compound]
activity in comparison with the compound of formula (2) [3]: less active | duration in comparison with the compound of formula (2) [3]: shorter duration | IC50 (PDE (Peak III) [4]; PDE (Peak III), 1 μM cyclic AMP): 51.8 µM
